From publication PMC3397464, “Woodylides A–C, New Cytotoxic Linear Polyketides from the South China Sea Sponge Plakortis simplex” (Marine Drugs, 2012)
In brackets after ≈: the same amount, converted by molar mass.

What was measured:
[1] = tested on: Microsporum gypseum (Cmccfmza); assay: Antifungal evaluation, MIC (NCCLS broth dilution); format: cell-based; settings: Nannizzia gypsea, 4–7 days at 30 °C, range 1.25–640 μg/mL
Description: (§1) The three new polyketides 1–3 were evaluated for antifungal activity against Cryptococcus neoformans (ATCC 90113), Candida albicans (Y0109), Trichophyton rubrum (Cmccftla) and Microsporum gypseum (Cmccfmza) (Table 2), for in vitro cytotoxic activity against human cancer cell lines, HCT-116 (colon cancer), A549 (lung carcinoma), HeLa (cervical cancer), QGY-7703 (hepatocarcinoma), and MDA231 (breast adenocarcinoma) (Table 3), and protein tyrosine phosphatase 1B (PTP1B) inhibitory activity (Table 3). […] Cytotoxicity of compound 3 against A549, HeLa, QGY-7703, and MDA231 cell lines was weaker when compared to that of 1. […] The PTP1B inhibitors are recognized as potential therapeutic agents for the treatment of type II diabetes and obesity.
(§2) Antifungal IC50 values of woodylides A–C against C. neoformans were calculated as described by Ikhlas A. Khan et al.. Amphotericin B was used as the positive control. Minimal Inhibition Concentration (MIC) values of woodylides A–C were determined against three indicators (C. albicans, T. rubrum, and M. gypseum), following the […] (NCCLS) methods. Fluconazole was used as the positive control. Briefly, samples (dissolved in DMSO) were serially diluted in 20% DMSO/saline and transferred (10 µL) in duplicate to 96 well flat bottom microplates. Bacterial strains were grown aerobically at 30 °C in SDA for 16–20 h. A set of different concentrations of compounds 1–3 prepared in RPMI 1640 were next inoculated with the microorganisms and incubated 70–74 h for C. neoformans at 35 °C, 46 h for C. albicans at 35 °C, and 4–7 days for T. rubrum and M. gypseum at 30 °C. The IC50 values were calculated by using the fit model 201 of XLfit 4.2 software.

[2] = tested on: Trichophyton rubrum (Cmccftla); assay: Antifungal evaluation, MIC (NCCLS broth dilution); format: cell-based; settings: 4–7 days at 30 °C, range 1.25–640 μg/mL, read-out: Antifungal Activity T. rubrum, MIC
Description: as §1, §2

[3] = target: T1, protein tyrosine phosphatase 1B (PTP1B) (Homo sapiens, UniProt P18031); assay: PTP1B inhibitory assay (pNPP hydrolysis); format: biochemical; settings: recombinant PTP1B catalytic domain, 30 °C, pH 6.5
T1 construct: The enzymatic activities of the PTP1B catalytic domain were determined at 30 °C by monitoring the hydrolysis of pNPP
T1 sequence (P18031 3-277 limits assumed): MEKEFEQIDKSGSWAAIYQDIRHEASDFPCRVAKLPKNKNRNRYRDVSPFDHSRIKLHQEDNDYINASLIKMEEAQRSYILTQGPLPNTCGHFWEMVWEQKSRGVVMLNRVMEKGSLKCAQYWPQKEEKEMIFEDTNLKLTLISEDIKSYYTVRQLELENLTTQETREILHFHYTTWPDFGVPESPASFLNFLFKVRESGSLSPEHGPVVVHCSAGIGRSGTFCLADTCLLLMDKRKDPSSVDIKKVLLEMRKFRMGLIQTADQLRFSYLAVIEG
Description: The enzymatic activities of the PTP1B catalytic domain were determined at 30 °C by monitoring the hydrolysis of pNPP.

[4] = tested on: Cryptococcus neoformans (ATCC 90113); assay: Antifungal evaluation, IC50 against C. neoformans; format: cell-based; settings: RPMI 1640; for IC50: Cryptococcus neoformans, ATCC90113, incubated 70–74 h at 35 °C
Description: as §1
Optical rotations were determined with a Perkin-Elmer 341 polarimeter with 1 mm cell. IR spectra were recorded on a Bruker vector 22 spectrometer with KBr pellets. The NMR experiments were conducted on Bruker AVANCE-600 and Bruker AMX-500 instruments. HRESIMS and ESIMS were obtained on a Q-Tof micro YA019 mass spectrometer. In antifungal evaluation, IC50 values were calculated on XLfit 4.2 software (IDBS: Alameda, CA, USA, 2005). Reversed-phase HPLC was performed on YMC-Pack Pro C18 RS (5 μm) columns with a Waters 1525/2998 liquid chromatograph. Column chromatographies were carried out on silica gel 60 (200–300 mesh; Yantai, China), Sephadex LH-20 (Amersham Biosciences). TLC was carried out using HSGF 254 plates and visualized by spraying with anisaldehyde-H2SO4 reagent.
as §2

Cytotoxicity MTT assay [5] = format: cell-based; settings: human, 48 h treatment, 1 to 100 μg/mL
Description: (§3) Cytotoxicity of compound 3 against A549, HeLa, QGY-7703, and MDA231 cell lines was weaker when compared to that of 1. […] The PTP1B inhibitors are recognized as potential therapeutic agents for the treatment of type II diabetes and obesity. The cytotoxicity of compounds 1-3 against HCT-116, A549, HeLa, QGY-7703, and MDA231 cell lines was evaluated by the MTT assay as described in a previous report. Briefly, compounds were solubilized in DMSO with the working concentration of test substances ranging from 1 to 100 μg/mL. Cells at the exponential growth phase were harvested and seeded into 96-well plates. After incubation for 24 h, the cells were treated with various concentrations of test substances for 48 h and then incubated with 1 mg/mL MTT at 37 °C for 4 h, followed by dissolving in DMSO. The produced formazan was measured by the absorbance at 570 nm on a microplate reader. The IC50 values were calculated on the basis of percentage inhibition using the linear regression method.

Candida albicans (Y0109) = assay: Antifungal evaluation, MIC (NCCLS broth dilution); format: cell-based; settings: 46 h at 35 °C, range 1.25–640 μg/mL
Description: as §1, §2

Cytotoxicity MTT assay [6] = format: cell-based, human; settings: human, HeLa cells (cervical cancer), 48 h treatment, 1 to 100 μg/mL
Description: as §3

HeLa (cervical cancer) = assay: Cytotoxicity MTT assay; format: cell-based, human; settings: 48 h treatment, 1 to 100 μg/mL
Description: as §3

MIC [1] [µg/mL] | MIC [2] [µg/mL] | IC50 [4] [µg/mL] | Compound | other results
8 (≈ 26.1 µM) | 2 (≈ 6.53 µM) | – | OC(Cn1cncn1)(Cn1cncn1)c1ccc(F)cc1F [Fluconazole, reference compound] | –
32 (≈ 107 µM) | 32 (≈ 107 µM) | 10.8 (≈ 36.1 µM) | CCCCC(C)CC(O)(C=C(CC)C(O)CC(=O)O)CC (centres unmarked) [Compound 3, Woodylide C] | IC50 [3]: 15.6 µM; IC50 at 48 h (Cytotoxicity MTT assay [5]; HCT-116 cells (colon cancer)): 9.4 µg/mL (≈ 31.3 µM)
– | – | – | CCCCC(CC)CC(O)(/C=C(/CC)[C@@H](O)CC(=O)OC)CC (some centres unmarked) [Compound 2, Woodylide B] | Antifungal Activity C. neoformans, IC50 ([4]; incubated 70–74 h at 35 °C): inactive
32 (≈ 102 µM) | 32 (≈ 102 µM) | 3.67 (≈ 11.7 µM) | CCCCC(C)CC(O)(/C=C(/CC)[C@@H](O)CC(=O)OC)CC (some centres unmarked) [Compound 1, Woodylide A] | MIC (Candida albicans (Y0109)): 32 µg/mL (≈ 102 µM); IC50 at 48 h (Cytotoxicity MTT assay [5]; A549 cells (lung carcinoma)): 37.8 µg/mL (≈ 120 µM); IC50 at 48 h (Cytotoxicity MTT assay [5]; QGY-7703 cells (hepatocarcinoma)): 25.8 µg/mL (≈ 82 µM); IC50 at 48 h (Cytotoxicity MTT assay [6]): 11.2 µg/mL (≈ 35.6 µM); Cytotoxicity IC50 HeLa (HeLa (cervical cancer)): 11.22 µg/mL
– | – | 0.35 (≈ 0.379 µM) | C[C@@H]1[C@H](O)[C@@H](C)/C=C/C=C/C=C/C=C/C=C/C=C/C=C/[C@H](O[C@@H]2O[C@H](C)[C@@H](O)[C@H](N)[C@@H]2O)C[C@@H]2O[C@](O)(C[C@@H](O)C[C@@H](O)[C@H](O)CC[C@@H](O)C[C@@H](O)CC(=O)O[C@H]1C)C[C@H](O)[C@H]2C(=O)O [Amphotericin B, reference compound] | –
